Our source for the Delta Fmax and Kd values is ChEMBL document CHEMBL1132759, “The flavanolignan silybin and its hemisynthetic derivatives, a novel series of potential modulators of P-glycoprotein” (Bioorg Med Chem Lett, 2000).

SMILES strings stand for the structures.

System in the first experiment: not listed separately
The experiment can be described thus: Change in Fmax was determined. In kind it is functional.
Turning to `COc1cc(C2Oc3cc(-c4oc5cc(O)c(CC=C(C)C)c(O)c5c(=O)c4O)ccc3OC2CO)ccc1O` (centres undefined), the Delta Fmax came out at 90.3%.
Regarding `COc1cc(C2Oc3cc(-c4oc5c(C/C=C(\C)CCC=C(C)C)c(O)cc(O)c5c(=O)c4O)ccc3OC2CO)ccc1O` (centres undefined), the Delta Fmax came to 88.1%.
The same measure, in the same setting: then `COc1cc(C2Oc3cc(-c4oc5c(CC=C(C)C)c(O)cc(O)c5c(=O)c4O)ccc3OC2CO)ccc1O` (centres undefined), with 93.4%.
The same measure, in the same setting: the figure for `COc1cc(C2Oc3cc(-c4oc5cc(O)cc(O)c5c(=O)c4O)ccc3OC2CO)ccc1O` (centres undefined) is 91%.
Regarding `COc1cc(C2Oc3cc(-c4oc5cc(O)c(C/C=C(\C)CCC=C(C)C)c(O)c5c(=O)c4O)ccc3OC2CO)ccc1O` (centres undefined), the Delta Fmax worked out at 83.3%.
The compound `O=C1c2c(O)cc(O)cc2O[C@H](c2ccc(O)c(O)c2)[C@H]1O` registered a Delta Fmax of 101%.
Compound `COc1cc(C2Oc3cc([C@H]4Oc5cc(O)cc(O)c5C(=O)[C@@H]4O)ccc3OC2CO)ccc1O` (some centres undefined) [SILIBININ] showed a Delta Fmax of 91%.

The next experiment deals with ATP-dependent translocase ABCB1 (Mus musculus, UniProt P21447). Description: Compound was tested for the binding affinity towards recombinant NBD2 C-terminal cytosolic nucleotide-binding domain of mouse P-Glycoprotein.
Sequence of ATP-dependent translocase ABCB1 (P21447 whole entry, the tested form may be a part): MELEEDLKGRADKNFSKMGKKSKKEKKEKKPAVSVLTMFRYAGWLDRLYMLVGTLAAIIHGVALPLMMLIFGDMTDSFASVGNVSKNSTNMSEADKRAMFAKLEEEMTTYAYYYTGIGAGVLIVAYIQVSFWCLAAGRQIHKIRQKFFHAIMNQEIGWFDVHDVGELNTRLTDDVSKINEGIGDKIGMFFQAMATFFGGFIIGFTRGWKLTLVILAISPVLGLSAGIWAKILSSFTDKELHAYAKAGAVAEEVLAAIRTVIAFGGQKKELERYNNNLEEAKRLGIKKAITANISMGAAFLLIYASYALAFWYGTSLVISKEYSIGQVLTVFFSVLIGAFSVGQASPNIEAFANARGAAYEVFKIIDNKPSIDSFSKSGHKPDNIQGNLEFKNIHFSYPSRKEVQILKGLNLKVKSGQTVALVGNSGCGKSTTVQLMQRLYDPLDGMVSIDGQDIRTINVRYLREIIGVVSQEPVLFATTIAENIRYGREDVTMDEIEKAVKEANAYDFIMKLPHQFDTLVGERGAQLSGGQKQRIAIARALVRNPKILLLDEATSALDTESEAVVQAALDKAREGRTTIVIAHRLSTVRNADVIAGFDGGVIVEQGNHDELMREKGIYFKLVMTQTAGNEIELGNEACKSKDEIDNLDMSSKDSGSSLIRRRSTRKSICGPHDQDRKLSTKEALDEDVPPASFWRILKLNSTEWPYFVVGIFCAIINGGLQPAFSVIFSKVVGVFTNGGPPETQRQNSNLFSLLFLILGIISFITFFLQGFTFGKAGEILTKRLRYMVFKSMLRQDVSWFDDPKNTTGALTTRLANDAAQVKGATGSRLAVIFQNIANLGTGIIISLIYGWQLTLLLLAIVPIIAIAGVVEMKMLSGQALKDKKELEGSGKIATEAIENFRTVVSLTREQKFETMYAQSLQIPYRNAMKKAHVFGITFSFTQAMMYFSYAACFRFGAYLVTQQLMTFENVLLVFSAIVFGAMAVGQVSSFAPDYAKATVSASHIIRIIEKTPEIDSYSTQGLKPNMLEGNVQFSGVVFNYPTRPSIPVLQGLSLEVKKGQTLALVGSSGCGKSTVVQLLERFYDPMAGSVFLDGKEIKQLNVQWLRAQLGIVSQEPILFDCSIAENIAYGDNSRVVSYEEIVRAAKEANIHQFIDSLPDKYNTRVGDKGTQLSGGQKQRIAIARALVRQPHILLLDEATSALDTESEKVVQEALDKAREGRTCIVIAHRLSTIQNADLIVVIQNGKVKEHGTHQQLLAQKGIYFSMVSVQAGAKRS
As usually defined, the Kd is the constant that tells how readily two partners part at equilibrium. `COc1cc(C2Oc3cc(-c4oc5cc(O)c(CC=C(C)C)c(O)c5c(=O)c4O)ccc3OC2CO)ccc1O` (centres undefined): the Kd came out at 0.37 µM.
With `COc1cc(C2Oc3cc(-c4oc5c(C/C=C(\C)CCC=C(C)C)c(O)cc(O)c5c(=O)c4O)ccc3OC2CO)ccc1O` (centres undefined), the Kd came out at 0.12 µM.
On to `COc1cc(C2Oc3cc(-c4oc5c(CC=C(C)C)c(O)cc(O)c5c(=O)c4O)ccc3OC2CO)ccc1O` (centres undefined), for which the Kd worked out at 0.25 µM.
The same measure, in the same setting: then `COc1cc(C2Oc3cc(-c4oc5cc(O)c(C/C=C(\C)CCC=C(C)C)c(O)c5c(=O)c4O)ccc3OC2CO)ccc1O` (centres undefined), with 0.18 µM.
`COc1cc(C2Oc3cc([C@H]4Oc5cc(O)cc(O)c5C(=O)[C@@H]4O)ccc3OC2CO)ccc1O` (some centres undefined) [SILIBININ]: the Kd amounted to 6.8 µM.
The same measure, in the same setting: then `COc1ccc(-c2oc3cc(O)cc(O)c3c(=O)c2O)cc1` [KAEMPFERIDE], with 4.5 µM; and `O=C1C[C@@H](c2ccc(O)cc2)Oc2cc(O)cc(O)c21` [NARINGENIN], with 28.5 µM.
